Data on 13 compounds can be found in PubChem BioAssay (NCI).

Common to all, as to experiment: NCI-60 cell line screen, 48 h
For assay [1], the system named is NCI-H460 lung.
For assay [2], the system named is UO-31 renal.
The subject of assay [3] is EKVX NSCLC.
In assay [4] the test system is SF-268 CNS.
Assay [5] concerns U251 CNS.
Assay [6] relates to A498 renal.
In assay [7] the test system is IGROV1 ovarian.
In assay [8] the test system is M14 melanoma.
For assay [9], the system named is SW-620 colon.
The test system of assay [10] is SF-539 CNS.

Where “and” joins values, the source holds several entries; their conditions need not be identical. Equal entries are not always repeated.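 Results reflect a 48-hour exposure of cells in 96-well plates to compound at five concentrations. GI50 marks 50% less growth. Definition used: TGI = concentration required for complete inhibition of growth.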 Where only a bound is given, the exact number is not on record here.

Regarding `C[C@H]1[C@H](C)CC[C@]2(C(=O)O)CC[C@]3(C)C(=CC[C@@H]4[C@@]5(C)C/C(=C/c6ccco6)C(=O)C(C)(C)[C@@H]5CC[C@]43C)[C@H]12`, the GI50 in [1] is 3.37 µM; in [2], 2.94 µM; in assay [3], 3.69 µM; in assay [4], 5.59 µM; in assay [5], 4.27 µM; in [6] it was 11.5 µM. In addition, the GI50 in [7] is 5.19 µM; in assay [8], 5.27 µM; in assay [9] it was 4.19 µM; in assay [10] it was 4.67 µM. The TGI in assay [1] was 11.9 µM; in assay [2] it was 13.1 µM; in assay [3] it was 15.4 µM; in assay [4] it was 22.1 µM; in [5] it was 17 µM; in assay [6], 33.8 µM. Further, the TGI was found to be 21.7 µM in assay [7], 21.2 µM in assay [8], 19.5 µM in assay [9] and 16.8 µM in assay [10].

Turning to `NCCC(O)(P(=O)(O)O)P(=O)(O)O`, the GI50 in [1], in assay [2], in assay [3], in [4], in assay [5] and in assay [6] was above 100 µM throughout. The GI50 in assay [7], in assay [8], in assay [9] and in [10] was above 100 µM each time. Also, the TGI in assay [1], in assay [2], in assay [3], in assay [4], in assay [5] and in [6] was above 100 µM in each case. Besides, the TGI in assay [7], in assay [8], in assay [9] and in assay [10] was above 100 µM each time.

Regarding `CCn1cnc2c(Nc3cccc(Cl)c3)nc(N[C@@H]3CCCC[C@@H]3N)nc21`, the GI50 in assay [1] was 1.23 µM; in assay [2], 1.6 µM; in [3], 1.6 µM; in [4], 1.65 µM; in assay [5] it was 1.37 µM; in assay [6], 1.9 µM. Besides, the GI50 in assay [7] is 2 µM; in [8] it was 1.44 µM; in assay [9] it was 1.78 µM; in assay [10], 1.42 µM. Besides, the TGI in assay [1] came to 3.7 µM; in assay [2], 4.04 µM; in assay [3] it was 3.92 µM; in assay [4], 3.89 µM; in assay [5], 3.3 µM; in [6], 3.93 µM. Moreover, the TGI in assay [7] worked out at 8.58 µM; in assay [8], 2.98 µM; in assay [9], 5.77 µM; in [10] it was 2.8 µM.

In the case of `Nc1nc2nc[nH]c2c(=O)[nH]1`, the TGI in assay [1], in assay [2], in assay [3], in assay [4], in assay [5] and in assay [6] was above 100 µM throughout. Moreover, the TGI in assay [7], in assay [8], in assay [9] and in assay [10] was above 100 µM in each case.

As for `Nc1ccn(C2CC(CO)C(O)C2O)c(=O)n1` (stereo not drawn), the TGI in assay [1], in assay [2], in assay [3], in [4], in assay [5] and in assay [6] was above 57.7 µM in each case. The TGI in assay [7], in assay [8], in [9] and in assay [10] was above 57.7 µM throughout.

Take `N.N.NCCCCN.O=C([O-])C1(C(=O)[O-])CCC1.O=C([O-])C1(C(=O)[O-])CCC1.[Pt+4].[Pt+4]`: the GI50 in assay [1] was 48.5 µM; in assay [2], above 100 µM; in assay [3], above 100 µM; in assay [4], 97.4 µM; in assay [5], above 100 µM; in [6], above 100 µM. Also, the GI50 in assay [7] is above 100 µM; in assay [8], above 100 µM; in assay [9] it was 27 µM; in [10], above 100 µM. Moreover, the TGI in assay [1], in assay [2], in assay [3], in assay [4], in assay [5] and in assay [6] was above 100 µM throughout. In addition, the TGI was above 100 µM in assay [7], above 100 µM in assay [8], 93.9 µM in [9] and above 100 µM in assay [10].

`C[C@@]12CCC(=O)C=C1CC[C@H]1C2=CC[C@]2(C)C1CC[C@@]2(C)O` (stereo partly drawn): the TGI in assay [1], in [2], in assay [3], in [4], in assay [5] and in assay [6] was above 100 µM in each case. Further, the TGI in assay [7], in assay [8], in assay [9] and in assay [10] was above 100 µM throughout.

As for `CC(C)(C)C(=O)C1CC(=O)c2ccccc2C1=O` (stereo not drawn), the TGI in assay [1] was above 100 µM; in [2], 67.8 µM; in assay [3], above 100 µM; in assay [4], 69.7 µM; in [5], 99.7 µM; in assay [6], 91.3 µM. The TGI in [7], in [8], in [9] and in assay [10] was above 100 µM throughout.

In the case of `CO[C@@H]1[C@H](OC(=O)NC(=O)CCl)CC[C@]2(CO2)[C@H]1[C@@]1(C)O[C@@H]1CC=C(C)C`, the GI50 in [1] is 0.755 µM and 2.6 µM; in assay [2], 16.1 µM; in [3], 22.4 µM; in assay [4], 20 µM; in assay [5], 4.98 µM and 0.575 µM; in assay [6], 38.6 µM. Moreover, the GI50 in assay [9] is 5.73 µM and 4.16 µM; in assay [10] it was 21.3 µM. For the same compound, the TGI was 24.2 µM and 49.6 µM in [1]; 26.6 µM and 46.2 µM in assay [2]; 35.8 µM and 52.4 µM in assay [3]; 33.6 µM and 74.5 µM in assay [4]; 20.8 µM and 13.3 µM in assay [5]; 33.5 µM and 74 µM in [6]. Further, the TGI in [7] was 33 µM and 43.4 µM; in assay [8], 32.3 µM and 40.5 µM; in [9], 51.7 µM and 41.3 µM; in assay [10] it was 23.8 µM and 46.9 µM.

For the compound `C=C1C(=O)O[C@H]2[C@H]1CC/C(COC(=O)NCc1c[nH]c3ccc(Cl)cc13)=C\CC[C@@]1(C)O[C@@H]21`, the GI50 in [1] was 1.96 µM; in [2], 1.43 µM; in [3], 1.58 µM; in [4], 1.66 µM; in [5] it was 1.66 µM; in [6] it was 1.81 µM. Moreover, the GI50 in assay [7] was 1.41 µM; in [8], 1.4 µM; in assay [9] it was 0.657 µM; in [10], 1.58 µM. Besides, the TGI in assay [1] came to 3.96 µM; in assay [2], 2.75 µM; in [3], 3 µM; in assay [4], 3.51 µM; in [5], 3.08 µM; in assay [6], 4.68 µM. For the same compound, the TGI in assay [7] is 2.94 µM; in assay [8], 2.91 µM; in [9], 2.2 µM; in assay [10], 3.04 µM.

Consider `CC1OC(OCC2COC(O)(Oc3c(-c4ccc(O)c(O)c4)oc4cc(O)cc(O)c4c3=O)C(O)C2O)C(O)C(O)C1O` (stereo not drawn), for which the TGI in assay [1], in [2], in assay [3], in [4], in [5] and in assay [6] was above 100 µM each time. Moreover, the TGI in [7], in [8], in assay [9] and in [10] was above 100 µM in each case.

Regarding `Cc1nc(NC(=O)CCCN2C(=O)c3cccc4cccc(c34)C2=O)sc1C(=O)Nc1cc(C(=O)NCCCN(C)C)n(C)c1`, the GI50 in assay [1], in [2], in assay [3], in assay [4], in [5] and in assay [6] was above 100 µM in each case. In addition, the GI50 in assay [7], in assay [8], in assay [9] and in [10] was above 100 µM throughout. The TGI in assay [1], in assay [2], in assay [3], in assay [4], in assay [5] and in assay [6] was above 100 µM each time. For the same compound, the TGI in assay [7], in assay [8], in [9] and in assay [10] was above 100 µM throughout.

Turning to `COc1ccccc1CNCCCN1C(=O)c2ccc3c4c(ccc(c24)C1=O)C(=O)N(CCCNCCCN)C3=O`, the GI50 in assay [1] was 0.146 µM; in [2], 0.744 µM; in assay [3] it was 1.02 µM; in [4], 0.41 µM; in assay [5] it was 0.106 µM; in assay [6] it was 0.342 µM. The GI50 in assay [7] was 0.272 µM; in assay [8] it was 0.972 µM; in assay [9], 0.105 µM; in assay [10] it was 0.968 µM. Moreover, the TGI amounted to 1.41 µM in assay [1]; 3.08 µM in assay [2]; 2.99 µM in assay [3]; 6.37 µM in [4]; 1.62 µM in assay [5]; 2.15 µM in [6]. For the same compound, the TGI stood at 2.72 µM in [7], 2.71 µM in [8], 1.79 µM in [9] and 2.82 µM in [10].
